Laboratory results: publication PMC3602154 (PLoS ONE, 2013)

Assays:
[1] = biological target: NET (norepinephrine transporter) (Homo sapiens, UniProt P23975); experiment: PDSP radioligand binding, norepinephrine transporter; details: 10 µM, quadruplicate; read-out: NET Primary Screen inhibition of binding
Text: (§1) [17] and http://pdsp.med.unc.edu/UNC-CH%20Protocol%20Book.pdf.

[2] = tested on: dopamine transporter (DAT); details: cited from earlier work
[3] = biological target: NMDA Receptor (MK-801 binding site); experiment: PDSP radioligand binding, NMDA receptor; details: Table 2; for Ki: read-out: NMDA (Ki) (converted)
Text: as §1

Sigma1 = Sigma1 (Homo sapiens, UniProt Q99720); experiment: PDSP radioligand binding, Sigma1; details: for inhibition at 10 µM: quadruplicate, read-out: Sigma1 Primary Screen inhibition of binding
Sigma1, sequence (Q99720 whole entry): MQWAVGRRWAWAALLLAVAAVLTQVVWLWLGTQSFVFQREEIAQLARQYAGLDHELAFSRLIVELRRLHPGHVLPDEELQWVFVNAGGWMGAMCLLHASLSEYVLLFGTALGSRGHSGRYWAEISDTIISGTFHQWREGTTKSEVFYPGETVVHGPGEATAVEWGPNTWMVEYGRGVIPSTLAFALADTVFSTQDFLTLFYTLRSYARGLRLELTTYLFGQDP
Text: as §1

Sigma2 = Sigma2 (Homo sapiens, UniProt Q5BJF2); experiment: PDSP radioligand binding, Sigma2; details: for Ki: Table 2
Sigma2, sequence (Q5BJF2 whole entry): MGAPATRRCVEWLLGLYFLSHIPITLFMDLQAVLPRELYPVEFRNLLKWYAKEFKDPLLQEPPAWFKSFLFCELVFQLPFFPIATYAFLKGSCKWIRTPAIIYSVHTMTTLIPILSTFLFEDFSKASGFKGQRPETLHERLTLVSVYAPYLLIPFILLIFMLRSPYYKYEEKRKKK
Text: as §1

[4] = biological target: SERT (serotonin transporter) (Homo sapiens, UniProt P31645); experiment: biochemical; type: binding
SERT (serotonin transporter), sequence (P31645 whole entry, species assumed): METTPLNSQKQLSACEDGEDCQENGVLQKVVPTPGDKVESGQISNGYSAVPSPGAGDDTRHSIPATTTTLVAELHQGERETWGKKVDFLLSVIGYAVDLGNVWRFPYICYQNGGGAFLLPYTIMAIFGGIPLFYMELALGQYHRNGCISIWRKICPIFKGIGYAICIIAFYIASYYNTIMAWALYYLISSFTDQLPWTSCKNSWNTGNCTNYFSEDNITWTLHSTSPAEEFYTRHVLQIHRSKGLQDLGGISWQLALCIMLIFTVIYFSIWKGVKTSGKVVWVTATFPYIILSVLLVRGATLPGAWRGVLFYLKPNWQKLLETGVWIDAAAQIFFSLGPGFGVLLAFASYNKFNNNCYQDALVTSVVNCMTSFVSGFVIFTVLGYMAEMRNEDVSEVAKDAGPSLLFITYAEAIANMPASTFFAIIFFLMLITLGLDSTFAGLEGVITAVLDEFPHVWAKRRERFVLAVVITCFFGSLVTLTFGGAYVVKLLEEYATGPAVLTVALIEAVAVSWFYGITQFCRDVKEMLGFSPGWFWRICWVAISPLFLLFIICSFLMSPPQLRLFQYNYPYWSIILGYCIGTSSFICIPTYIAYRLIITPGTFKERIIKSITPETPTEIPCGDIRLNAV
Text: as §1

NET (norepinephrine transporter), sequence (P23975 whole entry, species assumed): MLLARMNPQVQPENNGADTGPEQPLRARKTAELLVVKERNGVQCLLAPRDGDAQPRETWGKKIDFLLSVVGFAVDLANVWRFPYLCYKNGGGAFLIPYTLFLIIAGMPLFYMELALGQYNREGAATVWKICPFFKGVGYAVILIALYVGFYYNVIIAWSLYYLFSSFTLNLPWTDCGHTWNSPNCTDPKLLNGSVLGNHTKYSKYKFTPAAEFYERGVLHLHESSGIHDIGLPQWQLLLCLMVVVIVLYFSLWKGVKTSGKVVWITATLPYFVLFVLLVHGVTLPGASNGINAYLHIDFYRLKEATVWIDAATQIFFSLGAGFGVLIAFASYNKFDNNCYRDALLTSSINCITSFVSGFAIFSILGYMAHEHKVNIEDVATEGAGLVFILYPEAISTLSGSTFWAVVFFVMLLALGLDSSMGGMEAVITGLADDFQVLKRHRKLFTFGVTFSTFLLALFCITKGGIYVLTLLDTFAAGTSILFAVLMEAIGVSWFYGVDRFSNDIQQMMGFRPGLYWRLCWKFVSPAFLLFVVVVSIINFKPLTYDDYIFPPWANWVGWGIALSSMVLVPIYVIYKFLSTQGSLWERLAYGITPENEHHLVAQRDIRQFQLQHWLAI

## c1ccc(C2(N3CCCCC3)CCCCC2)cc1 [Phencyclidine, reference compound]
[1]
  inhibition at 10 µM: < 50%
[2]
  potency at DAT, in words: submicromolar potency
[3]
  Ki: 59 nM
Sigma1
  inhibition at 10 µM: < 50%
Sigma2; Sigma2 (Ki, nM)
  Ki: 136 nM
Sigma2; Sigma2 pKi +/− SD
  Ki: 151 nM

## CCNC1(c2cccc(OC)c2)CCCCC1 [3-MeO-PCE, N-ethyl-1-(3-methoxyphenyl)cyclohexanamine]
[1]
  inhibition at 10 µM: < 50%
[3]
  NMDA pKi +/− SD: 7.22±0.08
  Ki: 61 nM
Sigma1
  Ki: 4520 nM
[4]
  affinity for the serotonin transporter (SERT), in words: submicromolar affinities
[4]; Table 2
  Ki: 115 nM
Sigma2; Sigma2 (Ki, nM)
  Ki: 525 nM
Sigma2; Sigma2 pKi +/− SD
  Ki: 490 nM

## CNC1(c2ccccc2Cl)CCCCC1=O (racemic) [Ketamine, (RS)-2-(2-chlorophenyl)-2-(methylamino)cyclohexanone, reference compound]
[1]
  inhibition at 10 µM: < 50%
Sigma1
  inhibition at 10 µM: < 50%
Sigma1; tested at 10 µM
  effect on sigma1 receptors: no significant effect
Sigma2; 10 µM, quadruplicate, read-out: Sigma2 Primary Screen inhibition of binding
  inhibition at 10 µM: < 50%
Sigma2; tested at 10 µM
  effect on sigma2 receptors: no significant effect
